Results taken from the supplement of paper PMC10627819.

What was measured:
B. subtilis 168 = assay: Bliss interaction score (quartile over a dose matrix) (fitness difference); higher = more antagonism (negative = synergy)
In short: (§1)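 Fitness is OD595 at stationary-phase entry relative to the plate's robust no-drug mean, capped at 1. Single-drug fitness was inferred from combinations. The Bliss score is observed minus product-expected fitness, summarised by quartiles over technical, biological and donor/recipient replicates.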

S. pneumoniae D39V [1] = assay: as above
In short: as §1

S. aureus Newman = assay: as above
In short: as §1

S. aureus DSM 20231 = assay: as above
In short: as §1

S. pneumoniae D39V [2] = assay: fitness (endpoint OD595 vs no drug) (fraction); higher = more growth
In short: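 Fitness compares growth at the stationary-phase transition with the robust mean of no-drug control wells, as a ratio of optical densities. The ratio is capped at 1. Wells of 384-well plates held 30 µl, or 55 µl for S. pneumoniae, inoculated at OD595 0.01. Readings at OD595 every 30 min for 14 h at 37 °C were corrected against the first reading.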
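Throughout, for Bliss interaction score (quartile over a dose matrix): first quartile when negative (synergy) and third quartile when positive (antagonism).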

C[C@@H](O)[C@H]1C(=O)N2C(C(=O)O)=C(SCCNC=N)C[C@H]12 [Imipenem] + CN[C@H](CC(C)C)C(=O)N[C@H]1C(=O)N[C@@H](CC(N)=O)C(=O)N[C@H]2C(=O)N[C@H]3C(=O)N[C@H](C(=O)N[C@H](C(=O)O)c4cc(O)cc(O)c4-c4cc3ccc4O)[C@H](O)c3ccc(c(Cl)c3)Oc3cc2cc(c3O[C@@H]2O[C@H](CO)[C@@H](O)[C@H](O)[C@H]2O[C@H]2C[C@](C)(N)[C@H](O)[C@H](C)O2)Oc2ccc(cc2Cl)[C@H]1O [Vancomycin]
Conditions | Bliss interaction score
B. subtilis 168 | -0.0736
S. aureus DSM 20231 | 0.0423
S. aureus Newman | -0.0669
S. pneumoniae D39V [1] | -0.184

fitness, S. pneumoniae D39V [2]
Conditions | first compound 0.005 µg/mL | first compound 0.0065 µg/mL | first compound 0.01 µg/mL | first compound 0.013 µg/mL | first compound 0.02 µg/mL | first compound 0.026 µg/mL
partner 0.03125 µg/mL | 0.991 | – | 0.973 | – | 0.958 | –
partner 0.0625 µg/mL | 0.943 | – | 0.928 | – | 0.922 | –
partner 0.125 µg/mL | 0.783 | 0.769 | 0.767 | 0.798 | 0.76 | 0.817
partner 0.25 µg/mL | – | 0.0266 | – | 0.0839 | – | 0.0574
partner 0.5 µg/mL | – | 0.0186 | – | 0.0324 | – | 0.0486

C[C@@H](O)[C@H]1C(=O)N2C(C(=O)O)=C(SCCNC=N)C[C@H]12 [Imipenem] + CO[C@H]1/C=C/O[C@@]2(C)Oc3c(C)c(O)c4c(O)c(c(/C=N/N5CCN(C)CC5)c(O)c4c3C2=O)NC(=O)/C(C)=C\C=C\[C@H](C)[C@H](O)[C@@H](C)[C@@H](O)[C@@H](C)[C@H](OC(C)=O)[C@@H]1C [Rifampicin]
Conditions | Bliss interaction score
B. subtilis 168 | 0.0636
S. aureus DSM 20231 | 0.0391
S. aureus Newman | 0.0149
S. pneumoniae D39V [1] | -0.106

fitness, S. pneumoniae D39V [2], one replicate
Conditions | first compound 0.005 µg/mL | first compound 0.01 µg/mL | first compound 0.02 µg/mL
partner 0.025 µg/mL | 0.856 | 0.81 | 0.816
partner 0.2 µg/mL | 0 | 0 | 0

fitness, S. pneumoniae D39V [2]
Conditions | first compound 0.0065 µg/mL | first compound 0.013 µg/mL | first compound 0.02 µg/mL | first compound 0.026 µg/mL
partner 0.05 µg/mL | 0.678 | 0.721 | 0.726 | 0.695
partner 0.1 µg/mL | 0.402 | – | – | 0.361
partner 0.2 µg/mL | 0.254 | – | – | –

C[C@@H](O)[C@H]1C(=O)N2C(C(=O)O)=C(SCCNC=N)C[C@H]12 [Imipenem] + COc1c(N2C[C@@H]3CCCN[C@@H]3C2)c(F)cc2c(=O)c(C(=O)O)cn(C3CC3)c12 [Moxifloxacin]
Conditions | Bliss interaction score
B. subtilis 168 | 0.0307
S. aureus DSM 20231 | -0.0816
S. aureus Newman | 0.0177
S. pneumoniae D39V [1] | 0.0521

fitness, S. pneumoniae D39V [2]
Conditions | first compound 0.005 µg/mL | first compound 0.0065 µg/mL | first compound 0.01 µg/mL | first compound 0.013 µg/mL | first compound 0.02 µg/mL | first compound 0.026 µg/mL
partner 0.0037 µg/mL | – | 0.821 | – | 0.805 | – | 0.751
partner 0.005 µg/mL | 0.968 | – | 0.949 | – | 0.963 | –
partner 0.0075 µg/mL | – | 0.853 | – | 0.863 | – | 0.649
partner 0.01 µg/mL | 0.99 | – | 0.981 | – | 0.976 | –
partner 0.015 µg/mL | – | 0.856 | – | 0.67 | – | 0.65
partner 0.02 µg/mL | 0.933 | – | 0.904 | – | 0.941 | –

C[C@@H](O)[C@H]1C(=O)N2C(C(=O)O)=C(SCCNC=N)C[C@H]12 [Imipenem] + COc1ccc(C[C@H](N)C(=O)N[C@H]2[C@@H](O)[C@H](n3cnc4c(N(C)C)ncnc43)O[C@@H]2CO)cc1 [Puromycin]
Conditions | Bliss interaction score
B. subtilis 168 | 0.0681
S. aureus DSM 20231 | 0.0683
S. aureus Newman | -0.0481
S. pneumoniae D39V [1] | 0.0871

fitness, S. pneumoniae D39V [2], one replicate
Conditions | first compound 0.005 µg/mL | first compound 0.01 µg/mL | first compound 0.02 µg/mL
partner 1 µg/mL | 0.896 | 0.955 | 0.973
partner 2 µg/mL | 0.931 | 0.954 | 0.941
partner 4 µg/mL | 0.729 | 0.791 | 0.759

fitness, S. pneumoniae D39V [2]
Conditions | first compound 0.0065 µg/mL | first compound 0.013 µg/mL | first compound 0.026 µg/mL
partner 1 µg/mL | 0.992 | 0.989 | 0.964
partner 2 µg/mL | 0.96 | 0.886 | 0.906
partner 4 µg/mL | 0.748 | 0.783 | 0.739

C[C@@H](O)[C@H]1C(=O)N2C(C(=O)O)=C(SCCNC=N)C[C@H]12 [Imipenem] + C[C@H]1COc2c(N3CCN(C)CC3)c(F)cc3c(=O)c(C(=O)O)cn1c23 [Levofloxacin]
Conditions | Bliss interaction score
B. subtilis 168 | -0.17
S. aureus DSM 20231 | 0.025
S. aureus Newman | 0.0287
S. pneumoniae D39V [1] | -0.0377

fitness, S. pneumoniae D39V [2]
Conditions | first compound 0.005 µg/mL | first compound 0.0065 µg/mL | first compound 0.01 µg/mL | first compound 0.013 µg/mL | first compound 0.02 µg/mL | first compound 0.026 µg/mL
partner 0.1725 µg/mL | 0.958 | – | 0.948 | – | 0.963 | –
partner 0.2 µg/mL | – | 0.886 | – | 0.885 | – | 0.871
partner 0.345 µg/mL | 0.894 | – | 0.877 | – | 0.826 | –
partner 0.4 µg/mL | – | 0.77 | – | 0.778 | – | 0.713
partner 0.69 µg/mL | 0.571 | – | 0.615 | – | 0.576 | –
partner 0.8 µg/mL | – | 0.227 | – | 0.361 | – | 0.329

C[C@@H](O)[C@H]1C(=O)N2C(C(=O)O)=C(SCCNC=N)C[C@H]12 [Imipenem] + C[n+]1ccc(-c2cc[n+](C)cc2)cc1 [Paraquat]
Conditions | Bliss interaction score
B. subtilis 168 | -0.0424
S. aureus DSM 20231 | 0.0307
S. aureus Newman | 0.0426
S. pneumoniae D39V [1] | 0.0638

fitness, S. pneumoniae D39V [2], one replicate
Conditions | first compound 0.005 µg/mL | first compound 0.01 µg/mL | first compound 0.02 µg/mL
partner 1.5 µg/mL | 0.991 | 0.997 | ≥ 1
partner 3 µg/mL | 0.994 | 0.996 | ≥ 1
partner 6 µg/mL | ≥ 1 | ≥ 1 | 0.998

fitness, S. pneumoniae D39V [2]
Conditions | first compound 0.0065 µg/mL | first compound 0.013 µg/mL | first compound 0.026 µg/mL
partner 1.5 µg/mL | 0.97 | 0.983 | –
partner 3 µg/mL | 0.968 | 0.969 | 0.939
partner 6 µg/mL | 0.926 | 0.799 | 0.847
